Assay results published in ChEMBL document CHEMBL1122107, “Structure-antitumor activity relationships of 9-anilinoacridines using pattern recognition” (1982).

Each molecule was assayed on L1210 (assay: Tumor cell selectivity determined as maximal percent increase in life span (ILSmax) at LD10 dosage level in L1210 cells).
Assay type: functional, Mus musculus

**Q.** How did the ILSmax turn out when `COc1ccc2nc3cc(Cl)ccc3c(Nc3ccc(NS(C)(=O)=O)cc3OC)c2c1` was run?
**A.** The ILSmax was 25%.

**Q.** Which ILSmax does the source give for `Cc1ccc2c(Nc3ccc(NS(C)(=O)=O)cc3)c3ccc(N)cc3nc2c1C` here?
**A.** The ILSmax was 110%.

**Q.** How did the ILSmax turn out when `CN(c1ccccc1Nc1c2ccccc2nc2ccccc12)S(C)(=O)=O` was run?
**A.** The ILSmax was 25%.

**Q.** How did the ILSmax turn out when `O=C(O)c1ccc(S(=O)(=O)Nc2ccc(Nc3c4ccccc4nc4ccccc34)cc2)cc1` was run?
**A.** The ILSmax was 135%.

**Q.** Which ILSmax does the source give for `CC(C(N)=O)S(=O)(=O)Nc1ccc(Nc2c3ccccc3nc3ccccc23)cc1` (stereo not drawn) here?
**A.** Its ILSmax is 25%.

**Q.** How did the ILSmax turn out when `CCCCOc1cccc2c(Nc3ccc(NS(=O)(=O)CCC)cc3OC)c3ccccc3nc12` was run?
**A.** The ILSmax was 80%.

**Q.** With `CN(C)c1ccc(NC(=O)Nc2ccc(Nc3c4ccccc4nc4ccccc34)cc2)cc1` as the molecule, how does the ILSmax read?
**A.** Its ILSmax is 170%.

**Q.** How did the ILSmax turn out when `Nc1ccc(Nc2c3ccccc3nc3ccccc23)cc1` was run?
**A.** The ILSmax was 25%.

**Q.** Which ILSmax does the source give for `O=C(O)CCCCCc1ccc(NC(=O)Nc2ccc(Nc3c4ccccc4nc4ccccc34)cc2)cc1` here?
**A.** The ILSmax was 60%.

**Q.** For `CCCCCC(=O)Nc1ccc(Nc2c3ccccc3nc3ccccc23)cc1`, which ILSmax is on record?
**A.** Its ILSmax is 110%.

**Q.** How did the ILSmax turn out when `CCCCCCS(=O)(=O)Nc1ccc(Nc2c3ccccc3nc3cc(S(C)(=O)=O)ccc23)c(OC)c1` was run?
**A.** Its ILSmax is 25%.

**Q.** How did the ILSmax turn out when `NCc1ccc(Nc2c3ccccc3nc3cc([N+](=O)[O-])ccc23)cc1` was run?
**A.** The ILSmax was 25%.

**Q.** How did the ILSmax turn out when `O=C(Nc1ccc(N=c2c3ccccc3[nH]c3ccccc23)cc1)Nc1ccc(C(=O)O)cc1` was run?
**A.** Its ILSmax is 85%.
